SMILES strings stand for the structures.

T1 sequence (O14744 with tags, fused parts or gaps): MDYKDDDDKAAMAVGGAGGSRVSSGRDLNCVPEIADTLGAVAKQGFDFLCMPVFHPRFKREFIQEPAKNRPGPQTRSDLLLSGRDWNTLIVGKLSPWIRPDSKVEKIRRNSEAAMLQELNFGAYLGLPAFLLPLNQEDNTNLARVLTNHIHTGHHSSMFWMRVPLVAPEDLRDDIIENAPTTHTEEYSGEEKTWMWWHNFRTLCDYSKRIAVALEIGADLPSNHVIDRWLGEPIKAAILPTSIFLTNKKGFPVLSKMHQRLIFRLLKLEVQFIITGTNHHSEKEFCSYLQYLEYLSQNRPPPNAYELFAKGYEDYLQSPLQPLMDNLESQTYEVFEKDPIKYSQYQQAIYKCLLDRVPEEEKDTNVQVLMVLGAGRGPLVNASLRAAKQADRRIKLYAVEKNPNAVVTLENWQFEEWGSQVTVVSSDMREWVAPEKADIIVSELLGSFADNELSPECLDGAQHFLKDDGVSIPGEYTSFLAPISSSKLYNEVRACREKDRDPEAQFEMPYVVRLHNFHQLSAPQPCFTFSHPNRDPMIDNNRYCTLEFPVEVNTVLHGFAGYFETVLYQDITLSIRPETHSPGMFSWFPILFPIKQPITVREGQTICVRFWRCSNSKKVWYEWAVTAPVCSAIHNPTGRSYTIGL
T1 sequence (Q9BQA1 with tags, fused parts or gaps partner limits assumed): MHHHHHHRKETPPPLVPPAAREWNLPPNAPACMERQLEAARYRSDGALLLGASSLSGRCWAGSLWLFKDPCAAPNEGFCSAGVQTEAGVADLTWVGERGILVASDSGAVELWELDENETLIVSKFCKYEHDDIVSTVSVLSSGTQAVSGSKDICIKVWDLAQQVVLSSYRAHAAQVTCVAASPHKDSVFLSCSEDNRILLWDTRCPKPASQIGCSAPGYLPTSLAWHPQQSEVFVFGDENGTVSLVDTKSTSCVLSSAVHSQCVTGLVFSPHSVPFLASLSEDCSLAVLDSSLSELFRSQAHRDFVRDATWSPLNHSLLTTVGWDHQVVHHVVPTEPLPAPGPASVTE

The first experiment concerns the target T1, PRMT5/MEP50 (Homo sapiens, UniProt O14744).
T1 construct: Flag-PRMT5; made in house; host or cells: Spodoptera frugiperda (SF9), baculovirus
Put plainly: PRMT5 Biochemical Assay (PRMT5/MEP50 enzyme assay on histone H4 peptide substrate, 3H-SAM Flashplate).
Details: not given
In outline: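 Sf9-expressed Flag-PRMT5/6His-MEP50 preincubated with compound 30 min at 25 °C, then methylation of biotinylated H4 1-15 peptide started with ³H-SAM in 20 mM Bicine pH 7.6, 1 mM TCEP, 0.005% BSG, 0.002% Tween20.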
In general, IC50 refers to the concentration needed to halve the response being measured. As to `NCCCSC[C@H]1O[C@@H](n2cnc3c(N)ncnc32)[C@H](O)[C@@H]1O` [Compound 89-1], the IC50 is less than 100 nM.

Staying with this experiment, now noted: PRMT5 biochemical assay; read-out: Biochemical IC50.
Consider `CN(CCNc1ccccn1)C[C@H]1O[C@@H](n2cnc3c(N)ncnc32)[C@H](O)[C@@H]1O` [Compound 56-1], for which the IC50 is 101 to 1000 nM.

Take `O=C(CC1NC(N2CCc3ccccc3C2)=NC1=O)Nc1ccc(Cl)cc1` (centres unmarked) [Compound 56-14]: the IC50 lay in the range of 101 to 1000 nM.

With `CN(CCNc1ccccc1)CC1O[C@@H](n2cnc3c(N)ncnc32)[C@H](O)[C@@H]1O` (some centres unmarked) [Compound 57-1], the IC50 was less than 100 nM.

As for `O=C(CC1NC(N2CCC(c3ccccc3)CC2)=NC1=O)Nc1ccc(Cl)cc1` (centres unmarked) [Compound 57-14], the IC50 fell in the range of 1000 to 10000 nM.

Consider `CC(CO)NCCN(C)C[C@H]1O[C@@H](n2cnc3c(N)ncnc32)[C@H](O)[C@@H]1O` (some centres unmarked) [Compound 58-1], for which the IC50 was less than 100 nM.

As to `O=C(CC1NC(N2CCN(c3ccccc3)CC2)=NC1=O)Nc1ccc(Cl)cc1Cl` (centres unmarked) [Compound 58-14], the IC50 was 101 to 1000 nM.

As to `COCCNCCN(C)C[C@H]1O[C@@H](n2cnc3c(N)ncnc32)[C@H](O)[C@@H]1O` [Compound 59-1], the IC50 lay in the range of 101 to 1000 nM.

With `O=C(CC1NC(N2CCN(c3ccccc3)CC2)=NC1=O)Nc1ccc(Cl)c(Cl)c1` (centres unmarked) [Compound 59-14], the IC50 was 101 to 1000 nM.

Turning to `CN(CCNCCc1ccccc1Cl)C[C@H]1O[C@@H](n2cnc3c(N)ncnc32)[C@H](O)[C@@H]1O` [Compound 60-1], the IC50 was less than 100 nM.

As for `COc1ccccc1NC(=O)CC1NC(N2CCN(c3ccccc3)CC2)=NC1=O` (centres unmarked) [Compound 60-14], the IC50 was in the range of 10000 to 50000 nM.

As for `CN(CCNCCc1ccc(Cl)cc1)C[C@H]1O[C@@H](n2cnc3c(N)ncnc32)[C@H](O)[C@@H]1O` [Compound 61-1], the IC50 was less than 100 nM.

Turning to `COc1cccc(NC(=O)CC2NC(N3CCN(c4ccccc4)CC3)=NC2=O)c1` (centres unmarked) [Compound 61-14], the IC50 lay in the range of 10000 to 50000 nM.

Turning to `CCC(COC)NCCN(C)C[C@H]1O[C@@H](n2cnc3c(N)ncnc32)[C@H](O)[C@@H]1O` (some centres unmarked) [Compound 62-1], the IC50 is 101 to 1000 nM.

On to `COc1ccc(NC(=O)CC2NC(N3CCN(c4ccccc4)CC3)=NC2=O)cc1` (centres unmarked) [Compound 62-14], for which the IC50 fell in the range of 1000 to 10000 nM.

On to `CN(CCNCCOc1ccccc1)C[C@H]1O[C@@H](n2cnc3c(N)ncnc32)[C@H](O)[C@@H]1O` [Compound 63-1], for which the IC50 is less than 100 nM.

`COc1cc(Cl)ccc1NC(=O)CC1NC(N2CCN(c3ccccc3)CC2)=NC1=O` (centres unmarked) [Compound 63-14]: the IC50 is 101 to 1000 nM.

Turning to `CNCCNC[C@H]1O[C@@H](n2cnc3c(N)ncnc32)[C@H](O)[C@@H]1O` [Compound 64-1], the IC50 lay within 101 to 1000 nM.

Take `COc1cc(NC(=O)CC2NC(N3CCN(c4ccccc4)CC3)=NC2=O)ccc1Cl` (centres unmarked) [Compound 64-14]: the IC50 fell in the range of 1000 to 10000 nM.

Consider `CN(CCNC1CCCC1)C[C@H]1O[C@@H](n2cnc3c(N)ncnc32)[C@H](O)[C@@H]1O` [Compound 65-1], for which the IC50 is 101 to 1000 nM.

As to `O=C(CC1NC(N2CCN(c3ccccc3)CC2)=NC1=O)Nc1ccc2c(c1)OCO2` (centres unmarked) [Compound 65-14], the IC50 lay within 10000 to 50000 nM.

Consider `CC1CCCCN1CCCNCCN(C)C[C@H]1O[C@@H](n2cnc3c(N)ncnc32)[C@H](O)[C@@H]1O` (some centres unmarked) [Compound 66-1], for which the IC50 is 101 to 1000 nM.

Take `Cc1cc(Cl)ccc1NC(=O)CC1NC(N2CCN(c3ccccc3)CC2)=NC1=O` (centres unmarked) [Compound 66-14]: the IC50 was 1000 to 10000 nM.

With `COCC(C)NCCN(C)C[C@H]1O[C@@H](n2cnc3c(N)ncnc32)[C@H](O)[C@@H]1O` (some centres unmarked) [Compound 67-1], the IC50 lay within 101 to 1000 nM.

For the compound `Cc1ccc(NC(=O)CC2NC(N3CCN(c4ccccc4)CC3)=NC2=O)cc1` (centres unmarked) [Compound 67-14], the IC50 fell in the range of 1000 to 10000 nM.

Regarding `CCCCNCCN(C)C[C@H]1O[C@@H](n2cnc3c(N)ncnc32)[C@H](O)[C@@H]1O` [Compound 68-1], the IC50 is less than 100 nM.

For the compound `O=C(CC1NC(N2CCN(c3ccccc3)CC2)=NC1=O)Nc1ccccc1Br` (centres unmarked) [Compound 68-14], the IC50 fell in the range of 10000 to 50000 nM.

`Cc1ccccc1C(=O)CC1NC(N2CCN(c3ccccc3)CC2)=NC1=O` (centres unmarked) [Compound 69-14]: the IC50 fell in the range of 101 to 1000 nM.

As for `CN(CCNCCc1ccc(O)cc1)C[C@H]1O[C@@H](n2cnc3c(N)ncnc32)[C@H](O)[C@@H]1O` [Compound 70-1], the IC50 was less than 100 nM.

As to `O=C(CC1NC(N2CCN(c3ccccc3)CC2)=NC1=O)NCC1CCOCC1` (centres unmarked) [Compound 70-14], the IC50 lay in the range of 10000 to 50000 nM.

On to `CN(CCNC1CCC(C(C)(C)C)CC1)C[C@H]1O[C@@H](n2cnc3c(N)ncnc32)[C@H](O)[C@@H]1O` (some centres unmarked) [Compound 71-1], for which the IC50 lay in the range of 101 to 1000 nM.

In the case of `COc1ccccc1C(=O)CC1NC(N2Cc3ccccc3C2)=NC1=O` (centres unmarked) [Compound 71-14], the IC50 was 1000 to 10000 nM.

In the case of `CN(CCNCCc1c(Cl)cccc1Cl)C[C@H]1O[C@@H](n2cnc3c(N)ncnc32)[C@H](O)[C@@H]1O` [Compound 72-1], the IC50 is less than 100 nM.

Turning to `O=C(CC1NC(N2CC=C(c3ccccc3)CC2)=NC1=O)Nc1ccc(Cl)cc1` (centres unmarked) [Compound 72-14], the IC50 was in the range of 101 to 1000 nM.

Take `CN(CCNCCOc1cccc(F)c1)C[C@H]1O[C@@H](n2cnc3c(N)ncnc32)[C@H](O)[C@@H]1O` [Compound 73-1]: the IC50 is 101 to 1000 nM.

As to `O=C(CC1NC(N2CCC(O)(c3ccccc3)CC2)=NC1=O)Nc1ccc(Cl)cc1` (centres unmarked) [Compound 73-14], the IC50 was in the range of 101 to 1000 nM.

Regarding `Nc1ncnc2c1ncn2[C@@H]1O[C@H](CNCCNCCc2ccc(Cl)cc2)[C@@H](O)[C@H]1O` [Compound 74-1], the IC50 is less than 100 nM.

Regarding `Cc1cc(NC(=O)CC2NC(N3CCN(c4ccccc4)CC3)=NC2=O)ccc1Cl` (centres unmarked) [Compound 74-14], the half-maximal inhibitory concentration (IC50) is 1000 to 10000 nM.

For the compound `CCCCOC(=O)c1ccc(NC(=O)NCCNC[C@H]2O[C@@H](n3cnc4c(N)ncnc43)[C@H](O)[C@@H]2O)cc1` [Compound 75-1], the IC50 was less than 100 nM.

As for `O=C(CC1NC(N2CCN(c3ccccc3)CC2)=NC1=O)c1ccccc1Br` (centres unmarked) [Compound 75-14], the IC50 is 101 to 1000 nM.

For the compound `CC(=O)N(CCNCCc1ccc(Cl)cc1)C[C@H]1O[C@@H](n2cnc3c(N)ncnc32)[C@H](O)[C@@H]1O` [Compound 76-1], the IC50 was 101 to 1000 nM.

For `CC(C)N(CCNCCc1ccc(Cl)cc1)C[C@H]1O[C@@H](n2cnc3c(N)ncnc32)[C@H](O)[C@@H]1O` [Compound 77-1], the IC50 lay within 101 to 1000 nM.

For `Nc1ncnc2c1ncn2[C@@H]1O[C@H](CN(CCCC(=O)OCc2ccccc2)CCNCCc2ccc(Cl)cc2)[C@@H](O)[C@H]1O` [Compound 78-1], the IC50 was less than 100 nM.

For the compound `CN(CCNCCc1ccccc1)C[C@H]1O[C@@H](n2cnc3c(N)ncnc32)[C@H](O)[C@@H]1O` [Compound 79-1], the IC50 was 101 to 1000 nM.

Take `Nc1ncnc2c1ncn2[C@@H]1O[C@H](CN(CCCC(=O)O)CCNCCc2ccc(Cl)cc2)[C@@H](O)[C@H]1O` [Compound 80-1]: the IC50 is less than 100 nM.

Regarding `Nc1ncnc2c1ncn2[C@@H]1O[C@H](CN(CCNCCc2ccc(Cl)cc2)Cc2ccccc2)[C@@H](O)[C@H]1O` [Compound 81-1], the IC50 was less than 100 nM.

With `CCN(CCNCCc1ccc(Cl)cc1)C[C@H]1O[C@@H](n2cnc3c(N)ncnc32)[C@H](O)[C@@H]1O` [Compound 82-1], the IC50 was 101 to 1000 nM.

As to `N=C(NC[C@H]1O[C@@H](n2cnc3c(N)ncnc32)[C@H](O)[C@@H]1O)c1ccccc1` [Compound 83-1], the IC50 is 101 to 1000 nM.

`Nc1ncnc2c1ncn2[C@@H]1O[C@H](CN2CCCN(c3ccccn3)CC2)[C@@H](O)[C@H]1O` [Compound 84-1]: the IC50 fell in the range of 101 to 1000 nM.

With `CN1CCC(N(C)C[C@H]2O[C@@H](n3cnc4c(N)ncnc43)[C@H](O)[C@@H]2O)C1` (some centres unmarked) [Compound 85-1], the IC50 was in the range of 101 to 1000 nM.

Take `CN1CC[C@@H](N(C)C[C@H]2O[C@@H](n3cnc4c(N)ncnc43)[C@H](O)[C@@H]2O)C1` [Compound 86-1]: the IC50 was in the range of 101 to 1000 nM.

As to `Nc1ncnc2c1ncn2[C@@H]1O[C@H](CSC[C@H](N)C(=O)O)[C@@H](O)[C@H]1O` [Compound 88-1], the IC50 was 101 to 1000 nM.

Consider `Nc1ncnc2c1ncn2[C@@H]1O[C@H](CSCCC(N)CO)[C@@H](O)[C@H]1O` (some centres unmarked) [Compound 90-1], for which the IC50 was less than 100 nM.

For the compound `Nc1ncnc2c1ncn2[C@@H]1O[C@H](CSCC[C@H](N)CO)[C@@H](O)[C@H]1O` [Compound 91-1, (2S, 3S, 4R, 5R)-2-((((S)-3-amino-4-hydroxybutyl)thio)methyl)-5-(6-amino-9H-purin-9-yl)tetrahydrofuran-3,4-diol], the IC50 is less than 100 nM.

Regarding `O=C1c2ccccc2C(=O)N1CCCSC[C@H]1C[C@@H](n2ccc3cncnc32)[C@H](O)[C@@H]1O` [Compound 93-1], the IC50 fell in the range of 101 to 1000 nM.

With `CCSC[C@H]1O[C@@H](n2cnc3c(N)ncnc32)[C@H](O)[C@@H]1O` [Compound 94-1], the IC50 lay within 101 to 1000 nM.

On to `Nc1ncnc2c1ncn2[C@@H]1O[C@H](CSCCCC(=O)O)[C@@H](O)[C@H]1O` [Compound 95-1], for which the IC50 fell in the range of 101 to 1000 nM.

`CSC[C@H]1O[C@@H](n2cnc3c(N)ncnc32)[C@H](O)[C@@H]1O` [Compound 96-1]: the IC50 fell in the range of 101 to 1000 nM.

For `CN(CCCN)C[C@H]1O[C@@H](n2cnc3c(N)ncnc32)[C@H](O)[C@@H]1O` [Compound 97-1], the IC50 was less than 100 nM.

The values above are taken from patent US20170198006A1, “PRMT5 INHIBITORS AND USES THEREOF” (Epizyme, Inc., priority 2014, published 2017).
